The record followed here is paper PMC4805609, “Estrogenic Effects of Several BPA Analogs in the Developing Zebrafish Brain” (Frontiers in Neuroscience, 2016).

The target in assay [1] is T1, zfERβ1 (Danio rerio, UniProt Q5PR29).
T1 sequence (Q5PR29 1-592): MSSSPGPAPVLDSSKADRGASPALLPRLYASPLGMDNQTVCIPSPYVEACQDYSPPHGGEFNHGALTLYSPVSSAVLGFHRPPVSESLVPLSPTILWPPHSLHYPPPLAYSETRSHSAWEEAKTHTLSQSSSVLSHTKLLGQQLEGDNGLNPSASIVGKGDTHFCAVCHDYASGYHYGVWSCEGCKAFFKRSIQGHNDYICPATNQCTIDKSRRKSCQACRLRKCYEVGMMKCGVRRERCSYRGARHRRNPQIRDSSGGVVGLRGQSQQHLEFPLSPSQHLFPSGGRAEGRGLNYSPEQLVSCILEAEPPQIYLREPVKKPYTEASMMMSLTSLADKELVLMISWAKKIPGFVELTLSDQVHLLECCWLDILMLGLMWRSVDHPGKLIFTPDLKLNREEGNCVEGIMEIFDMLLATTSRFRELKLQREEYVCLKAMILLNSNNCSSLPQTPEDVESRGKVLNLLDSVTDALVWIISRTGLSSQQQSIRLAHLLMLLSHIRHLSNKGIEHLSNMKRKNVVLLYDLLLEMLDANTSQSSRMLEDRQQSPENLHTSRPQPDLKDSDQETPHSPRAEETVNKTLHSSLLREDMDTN
The assay is described as follows: cyp19a1b-luciferase reporter gene assay in U251-MG glial cells transfected with zfERβ1. Type of assay: cell-based, zebrafish. The note with it: 10–6 M, 24 h, U251-MG cells with ERβ1, vs DMSO. An excerpt:
The zfER-α, zfER-β1, and zfER-β2 expression vectors correspond to Topo-pcDNA3 expression vector (Invitrogen, San Diego, CA, USA), containing the coding regions of each zebrafish estrogen receptor cDNA as previously described (Menuet et al., [2002]). The cyp19a1b-Luciferase plasmid consists of 500 bp of the proximal promoter region of zebrafish cyp19a1b gene, containing an ERE, coupled to the luciferase reporter gene (Menuet et al., [2002]).
(§1) Human U251-MG glial cells were maintained in phenol red-free Dulbecco's Modified Eagle's Medium (DMEM; Life Technologies, Saint Aubin, France) supplemented with 10% fetal calf serum (Biowest, Nuaillé, France), 4 mM L-Glutamine (Gibco, Carlsbad, CA, USA) and 1 mM Na-Pyruvate (Life Technologies, Saint Aubin, France) and kept at 37°C and 5% CO2 atmosphere (Le Page et al., [2006]). The medium was also supplemented with 20 U/mL penicillin, 20 μg/mL streptomycin, and 50 ng/mL amphotericin B (Gibco). For transfections, cells were plated in 24-well plates at a density of 25,000 cells/ml in the same medium, except the fetal calf serum was charcoal-treated and used at a concentration of 2.5%. Cells were transfected with 25 ng/well either the vector expression containing or not the zfERα, zfERβ1, zfERβ2 coding region and cytomegalovirus [CMV]−β-Galactosidase, and 150 ng/well of the cyp19a1b-Luciferase reporter plasmid, using JetPEI as a transfection reagent (Polyplus Transfection, Illkirch, France). […] Luciferase activity was measured 24 h later (Luciferase assay system, Promega, Madison, WI, USA). β-Galactosidase activity was used to normalize transfection efficiency. Chemicals were tested in at least 3 independent experiments and each experiment was performed in triplicate.

Assay [2] addresses T2, zfERβ2 (Danio rerio, UniProt Q7ZU32). Nature of the assay: cyp19a1b-luciferase reporter gene assay in U251-MG glial cells transfected with zfERβ2. In kind it is cell-based, zebrafish. The note with it: 10–6 M, 24 h, U251-MG cells with ERβ2, vs DMSO. As for the experimental part:
as §1, with “The” for “Human U251-MG glial cells were maintained in phenol red-free Dulbecco's Modified Eagle's Medium (DMEM; Life Technologies, Saint Aubin, France) supplemented with 10% fetal calf serum (Biowest, Nuaillé, France), 4 mM L-Glutamine (Gibco, Carlsbad, CA, USA) and 1 mM Na-Pyruvate (Life Technologies, Saint Aubin, France) and kept at 37°C and 5% CO2 atmosphere (Le Page et al., [2006]). The”

For assay [3], the target named is T2, zfERβ2. As for the experimental part: (§2) We also performed a competitive binding assay to test the binding properties of our compounds of interest with the three zfERs (Blair et al., [2000]). The three zebrafish estrogen receptor proteins were synthesized using the Topo-pcDNA3 expression vector containing the coding region of zfERα, zfERβ1, and zfERβ2 (Menuet et al., [2002]). The TNT Quick Coupled Transcription/Translation Systems kit (Promega, Madison, WI, USA) was used for synthesis of zfER proteins by adding 1 μg of each ER expression vector and according to the manufacturer's protocol. […] IC50 were calculated using GraphPad Prism, version 6.07.

For assay [4], the target named is T1, zfERβ1. The assay is described as follows: competitive binding assay vs [3H]-E2 on in vitro translated zfERβ1. More on the design: species or system zebrafish. As for the experimental part:
as §2

The target of a further assay is T3, zfERα (Danio rerio, UniProt P57717).
T3 sequence (P57717 1-569): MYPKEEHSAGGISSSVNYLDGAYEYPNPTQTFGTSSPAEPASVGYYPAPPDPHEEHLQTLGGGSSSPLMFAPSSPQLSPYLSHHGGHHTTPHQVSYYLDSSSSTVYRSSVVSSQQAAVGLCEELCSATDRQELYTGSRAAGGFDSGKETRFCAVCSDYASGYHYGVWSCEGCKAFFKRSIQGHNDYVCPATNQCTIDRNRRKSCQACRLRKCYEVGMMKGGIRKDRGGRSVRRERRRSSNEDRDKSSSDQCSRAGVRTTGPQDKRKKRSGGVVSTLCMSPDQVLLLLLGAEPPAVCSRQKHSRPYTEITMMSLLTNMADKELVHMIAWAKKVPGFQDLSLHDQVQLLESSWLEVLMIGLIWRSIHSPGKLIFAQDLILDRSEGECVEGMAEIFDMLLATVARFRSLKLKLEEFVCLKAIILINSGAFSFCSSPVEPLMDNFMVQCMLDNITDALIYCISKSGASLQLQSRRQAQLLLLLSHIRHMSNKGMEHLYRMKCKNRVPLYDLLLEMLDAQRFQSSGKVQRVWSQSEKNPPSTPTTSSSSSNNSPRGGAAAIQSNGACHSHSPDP
Nature of the assay: competitive binding assay vs [3H]-E2 on in vitro translated zfERα. More on the design: containing the coding regions of each zebrafish estrogen receptor cDNA; species or system zebrafish. The note with it: for receptor-binding activity: competition with [3H]-E2, ERα, Figure 8A. As for the experimental part: as §2

T2 sequence (Q7ZU32 1-553): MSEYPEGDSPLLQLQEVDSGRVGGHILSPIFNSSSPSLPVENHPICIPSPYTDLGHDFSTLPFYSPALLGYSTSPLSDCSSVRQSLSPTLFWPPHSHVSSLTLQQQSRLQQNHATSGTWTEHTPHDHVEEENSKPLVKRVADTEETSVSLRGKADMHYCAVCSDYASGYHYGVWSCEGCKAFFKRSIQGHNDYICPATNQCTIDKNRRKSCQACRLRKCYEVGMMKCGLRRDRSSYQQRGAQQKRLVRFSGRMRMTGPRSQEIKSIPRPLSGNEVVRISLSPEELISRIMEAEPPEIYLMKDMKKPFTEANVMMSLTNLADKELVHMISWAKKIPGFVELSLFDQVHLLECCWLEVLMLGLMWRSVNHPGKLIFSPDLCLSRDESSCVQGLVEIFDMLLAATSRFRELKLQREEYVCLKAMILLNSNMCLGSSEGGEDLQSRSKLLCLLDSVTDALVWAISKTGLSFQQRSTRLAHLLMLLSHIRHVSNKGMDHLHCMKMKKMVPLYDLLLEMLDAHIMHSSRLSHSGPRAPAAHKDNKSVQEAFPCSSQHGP

For the molecule `CC(c1ccccc1)(c1ccc(O)cc1)c1ccc(O)cc1` [BPAP, 4,4′-(1-phenylethylidene)bisphenol], the “cyp19a1b-luciferase reporter gene induction” value at zfERβ1 [1] and on zfERβ2 [2] was “did not stimulate” in each case.

As for `O=S(=O)(c1ccc(O)cc1)c1ccc(O)cc1` [BPS, bis-(4-hydroxyphenyl)sulfone], the receptor-binding activity result at zfERβ2 [3] is “almost no binding affinities”; on zfERβ1 [4] (competition with [3H]-E2, ERβ1, Figure 8B) it was “almost no binding affinities”; at zfERα it was “almost no binding affinities”. The “cyp19a1b-luciferase reporter gene induction” value on zfERβ1 [1] and at zfERβ2 [2] was “did not stimulate” in each case.

Turning to `Oc1ccc(C(c2ccc(O)cc2)(C(F)(F)F)C(F)(F)F)cc1` [BPAF, 2,2-bis(4-hydroxylphenyl)hexafluoropropane], the IC50 on zfERβ1 [4] was 660 nM; on zfERα (displacement of 10^−9 M [3H]-E2, ERα) it was 76 nM. In addition, the receptor-binding activity entry on zfERα was “bind in vitro to ERα receptor”.
